Data on 9 compounds can be found in ChEMBL document CHEMBL4270673, “Receptor-Ligand Interaction Measured by Inductively Coupled Plasma Mass Spectrometry and Selenium Labeling” (J Med Chem, 2018).

Where a SMILES comes first, the peptide text is derived from it. [ ]: non-standard residue; d: D form. The star is where a group is joined. SeMet = C[Se]CC[C@H](N)C(=O)O; X1 = O=C(C[Se]c1ccccc1)*; Ahx = NCCCCCC(=O)O

As a reminder, the Ki is a dissociation constant, usually derived from enzyme kinetics or from competition with a known ligand. A lower Ki goes with higher affinity. By Kd is commonly meant the constant that tells how readily two partners part at equilibrium. A high value points to a looser complex.

For assay [1], the target named is T1, Vasopressin V1a receptor (Homo sapiens, UniProt P37288). Description: Displacement of [125I]OH-Phpa-LVA from human V1A receptor expressed in CHO cells after 4 hrs by gamma counter analysis. Format: cell-based. A general note: Displacement assays read how much labelled ligand stays bound in the presence of the test substance.
Target sequence in this assay (P37288 whole entry): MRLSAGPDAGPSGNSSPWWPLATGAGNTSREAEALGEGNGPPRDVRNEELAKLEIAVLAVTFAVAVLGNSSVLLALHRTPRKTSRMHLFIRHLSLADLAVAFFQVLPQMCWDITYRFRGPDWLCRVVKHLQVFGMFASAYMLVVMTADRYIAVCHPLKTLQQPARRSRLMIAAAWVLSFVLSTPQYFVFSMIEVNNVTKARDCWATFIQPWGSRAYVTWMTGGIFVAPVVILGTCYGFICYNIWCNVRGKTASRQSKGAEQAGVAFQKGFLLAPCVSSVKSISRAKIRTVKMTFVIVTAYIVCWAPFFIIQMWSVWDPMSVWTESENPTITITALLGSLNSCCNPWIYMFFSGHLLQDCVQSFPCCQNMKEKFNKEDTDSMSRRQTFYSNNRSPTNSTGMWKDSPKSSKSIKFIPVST
The target in assay [2] is T1, Vasopressin V1a receptor. Description: Binding affinity to human V1A receptor expressed in CHO cells assessed per million cells after 4 hrs by RP-LC-ICPMS analysis. The class given is cell-based.
Target sequence in this assay (P37288 whole entry, looked up): as the sequence (P37288 whole entry) above
The target of assay [3] is T2, Gastrin/cholecystokinin type B receptor (Homo sapiens, UniProt P32239).
T2 sequence (P32239 whole entry): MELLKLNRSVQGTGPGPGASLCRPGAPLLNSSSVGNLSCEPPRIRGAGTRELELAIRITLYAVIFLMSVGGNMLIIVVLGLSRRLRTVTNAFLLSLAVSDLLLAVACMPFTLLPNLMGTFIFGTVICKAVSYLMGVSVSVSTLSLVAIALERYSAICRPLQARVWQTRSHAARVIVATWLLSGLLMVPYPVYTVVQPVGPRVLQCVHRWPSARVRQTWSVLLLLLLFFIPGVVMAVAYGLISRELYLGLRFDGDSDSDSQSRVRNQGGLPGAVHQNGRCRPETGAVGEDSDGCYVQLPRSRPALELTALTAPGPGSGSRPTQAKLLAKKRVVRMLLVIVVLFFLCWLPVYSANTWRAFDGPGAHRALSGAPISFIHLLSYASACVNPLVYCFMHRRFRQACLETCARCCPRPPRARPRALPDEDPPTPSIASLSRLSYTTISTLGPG
As to the kind of experiment: Displacement of non-sulfated CCK-8 from CCKB receptor (unknown origin) expressed in HEK cells after 4 hrs by RP-LC-ICPMS analysis. Format: cell-based.

In assay [4] the target is T2, Gastrin/cholecystokinin type B receptor. Description: Binding affinity to CCKB receptor (unknown origin) expressed in HEK cells after 4 hrs by RP-LC-ICPMS analysis. The class given is cell-based.
Assay [5] deals with T1, Vasopressin V1a receptor. Description: Binding affinity to human V1A receptor expressed in CHO cell membranes.
Target sequence in this assay (P37288 whole entry): as the sequence (P37288 whole entry) above
In assay [6] the target is T1, Vasopressin V1a receptor. Description: Displacement of [Se-Se]-AVP from human V1A receptor expressed in CHO cells after 4 hrs by RP-LC-ICPMS analysis. The class given is cell-based.
Target sequence in this assay (P37288 whole entry): as the sequence (P37288 whole entry) above
Assay [7] concerns the target T1, Vasopressin V1a receptor. As to the kind of experiment: Displacement of [Ph-Se-acetyl]-LVA from human V1A receptor expressed in CHO cells after 4 hrs by RP-LC-ICPMS analysis. Format: cell-based.
Target sequence in this assay (P37288 whole entry): as the sequence (P37288 whole entry) above
Assay [8] deals with T1, Vasopressin V1a receptor. As to the kind of experiment: Binding affinity to human V1A receptor expressed in CHO cells after 4 hrs by RP-LC-ICPMS analysis. Format: cell-based.
Target sequence in this assay (P37288 whole entry): as the sequence (P37288 whole entry) above
The target of assay [9] is T1, Vasopressin V1a receptor. As to the kind of experiment: Displacement of [Sez6]-HO-Phpa-LVA from human V1A receptor expressed in CHO cells after 4 hrs by RP-LC-ICPMS analysis. Format: cell-based.
Target sequence in this assay (P37288 whole entry): as the sequence (P37288 whole entry) above

Regarding `N=C(N)NCCC[C@H](NC(=O)[C@@H]1CCCN1C(=O)[C@@H]1C[Se]C[C@H](N)C(=O)N[C@@H](Cc2ccc(O)cc2)C(=O)N[C@@H](Cc2ccccc2)C(=O)N[C@@H](CCC(N)=O)C(=O)N[C@@H](CC(N)=O)C(=O)N1)C(=O)NCC(N)=O`, the affinity at Vasopressin V1a receptor [1], expressed as Ki, was 1280 nM.

Consider `N=C(N)NCCC[C@@H](NC(=O)[C@@H]1CCCN1C(=O)[C@@H]1C[Se][Se]C[C@H](N)C(=O)N[C@@H](Cc2ccc(O)cc2)C(=O)N[C@@H](Cc2ccccc2)C(=O)N[C@@H](CCC(N)=O)C(=O)N[C@@H](CC(N)=O)C(=O)N1)C(=O)NCC(N)=O`, for which the Bmax on Vasopressin V1a receptor [2] was found to be 1060 fmol.

In assay [3], `CSCC[C@H](NC(=O)[C@H](Cc1c[nH]c2ccccc12)NC(=O)CCCCCNC(=O)[C@H](CCCNC(=N)N)NC(=O)C[Se]c1ccccc1)C(=O)N[C@@H](CC(=O)O)C(=O)N[C@@H](Cc1ccccc1)C(N)=O` (X1-R[Ahx]WMDF-NH2) showed a Ki of 7.93 nM. The affinity in assay [4], expressed as Kd, was 29.3 nM.

The compound `N=C(N)NCCC[C@H](NC(=O)[C@@H]1CCCN1C(=O)[C@@H]1C[Se][Se]C[C@H](N)C(=O)N[C@@H](Cc2ccc(O)cc2)C(=O)N[C@@H](Cc2ccccc2)C(=O)N[C@@H](CCC(N)=O)C(=O)N[C@@H](CC(N)=O)C(=O)N1)C(=O)NCC(N)=O` yielded a Kd at Vasopressin V1a receptor [5] of 0.6 to 3 nM. The Ki at Vasopressin V1a receptor [1] stood at 0.7 nM; at Vasopressin V1a receptor [6] it was 1.7 nM.

In the case of `CCOc1ccc2c(c1)[C@]1(CC[C@H](OCCN3CCOCC3)CC1)C(=O)N2S(=O)(=O)c1ccc(C(=O)NC(C)(C)C)cc1OC`, the Ki came out at 304 nM at Vasopressin V1a receptor [1] and 2950 nM at Vasopressin V1a receptor [6].

For the compound `COc1ccc(C[C@@H](NC(=O)C[Se]c2ccc(O)cc2)C(=O)N[C@@H](Cc2ccccc2)C(=O)N[C@@H](CCC(N)=O)C(=O)N[C@@H](CC(N)=O)C(=O)N[C@@H](CCCNC(=N)N)C(=O)N2CCC[C@H]2C(=O)N[C@@H](CCCNC(=N)N)C(N)=O)cc1`, the Ki was 12.9 nM at Vasopressin V1a receptor [7] and 0.9 nM at Vasopressin V1a receptor [1]. Besides, at Vasopressin V1a receptor [2], the Bmax came to 696 fmol. The compound further returned a Kd on Vasopressin V1a receptor [8] of 0.32 nM.

Consider `COc1ccc(C[C@@H](NC(=O)CCc2ccc(O)cc2)C(=O)N[C@@H](Cc2ccccc2)C(=O)N[C@@H](CCC(N)=O)C(=O)N[C@@H](CC(N)=O)C(=O)N[C@@H](CCCNC(=N)N)C(=O)N2CCC[C@H]2C(=O)N[C@@H](CCCNC(=N)N)C(N)=O)cc1`, for which the Ki on Vasopressin V1a receptor [1] was 0.8 nM; at Vasopressin V1a receptor [6], 0.2 nM.

For `COc1ccc(C[C@@H](NC(=O)CCc2ccc(O)cc2)C(=O)N[C@@H](Cc2ccccc2)C(=O)N[C@@H](CCC(N)=O)C(=O)N[C@@H](CC(N)=O)C(=O)N[C@@H](CCCNC(=N)N)C(=O)N2C[Se]C[C@H]2C(=O)N[C@@H](CCCNC(=N)N)C(N)=O)cc1`, the Ki on Vasopressin V1a receptor [9] worked out at 3.8 nM; at Vasopressin V1a receptor [1], 0.9 nM; at Vasopressin V1a receptor [6], 0.4 nM. The same compound yielded a Bmax at Vasopressin V1a receptor [2] of 845 fmol. At Vasopressin V1a receptor [8], this compound returned a Kd of 0.45 nM.

Consider `CSCC[C@H](NC(=O)[C@H](Cc1c[nH]c2ccccc12)NC(=O)CCCCCNC(=O)[C@H](CCCNC(=N)N)NC(=O)[C@H](CC[Se]C)NC(C)=O)C(=O)N[C@@H](CC(=O)O)C(=O)N[C@@H](Cc1ccccc1)C(N)=O` (Ac-[SeMet]R[Ahx]WMDF-NH2), for which the Ki in [3] stood at 3.91 nM. This compound had a Kd in assay [4] of 45.5 nM.
